Data from PMC10094921, “A Lipidated Single-B-Chain Derivative of Relaxin Exhibits Improved In Vitro Serum Stability without Altering Activity” (International Journal of Molecular Sciences, 2023).
No end group written: not given here.

Tests used:
[1] = test system: pERK pathway; settings: in fibroblasts; cited from earlier work
From the text: (§1) The human gene-2 relaxin peptide (H2 relaxin) was discovered as a hormone of reproduction. The actions of H2 relaxin during pregnancy are pleiotropic, including strong antifibrotic, angiogenic, vasodilatory, antiapoptotic, and anti-inflammatory effects. These effects are mediated through the activation of the G protein-coupled receptor, Relaxin Family Peptide Receptor 1 (RXFP1), the native receptor for H2 relaxin [5]. However, H2 relaxin also has a high affinity for, and potency on, the related Relaxin Family Peptide Receptor 2 (RXFP2, a cognate receptor for INSL3 [6]) ...

[2] = test system: cyclic adenosine monophosphate (cAMP); settings: in fibroblasts; cited from earlier work
From the text: as §1

[3] = test system: heart fibrosis, lung fibrosis; settings: rat vs. mouse; cited from earlier work
From the text: as §1

[4] = test system: BJ3 human dermal myofibroblasts; assay: Myofibroblast differentiation in vitro (α-SMA expression, Western blot); type: cell-based
Experimental: 3.8. Determination of the Effects of Lipidated (L)-B7-33 on Myofibroblast Differentiation In Vitro
To determine if the lipidation of B7-33 prolonged its ability to suppress myofibroblast differentiation in vitro, the effects of the native B7-33 peptide vs. lipidated (L)-B7-33 were compared in BJ3 cells, a human dermal fibroblast cell line. BJ3 fibroblasts were used between passages 15–18 and cultured as described before. […] BJ3 cells were plated in 12-well plates at a density of 1–1.25 × 10^5 cells per well and were then either left untreated or stimulated with transforming growth factor (TGF)-β1 (T; 2 ng/mL) alone (to promote myofibroblast differentiation) or with T + B7-33 (100 ng/mL) or T + L-B7-33 (100 ng/mL) for a 14-day period, in media that was left unchanged over this time period. The cells from duplicate wells per treatment group were isolated from plates at 3-, 5-, 7-, 10- and 14-days post-T ± peptide treatment and extracted for protein using the RIPA lysis buffer (ThermoFisher Scientific; Scoresby, Victoria, Australia). These experiments were performed six independent times.
Half the cell protein (in 10 μL of RIPA buffer) from each sample (that was fully reconstituted in 20 μL of RIPA buffer) was loaded and electrophoresed in separate mini-protean 4–15% precast gels, and analyzed by Western blotting using a primary monoclonal antibody to α-SMA (42 kDa; M0851; […]; Agilent Technologies, Santa Clara, CA, USA). The equivalent loading of protein between samples was confirmed using a rabbit monoclonal glyceraldehyde 3-phosphate dehydrogenase (GAPDH) housekeeping antibody (37 kDa; 2118; 1:1000 dilution; Cell Signaling Technology; Danvers, MA, USA). Each membrane was then subjected to appropriate anti-mouse (7076) or anti-rabbit (7074) horseradish peroxidase-conjugated secondary antibodies (both at a 1:2000 dilution; Cell Signaling Technologies), before proteins were detected using the Clarity Western ECL substrate detection kit and quantified by densitometry with a ChemiDoc MP Imaging System and Image Lab v.6.0 software (both from Bio-Rad Laboratories, Hercules, CA, USA).The density of α-SMA from each sample was corrected for GAPDH protein levels and then expressed relative to the ratio that was measured from the unstimulated control group, which was expressed as 1 in each case. Representative blots of α-SMA and GAPDH were also chosen for presentation in each case.

[5] = In vitro serum stability assay; type: in vitro ADME, human; settings: 37 °C
Experimental: 3.7. In Vitro Serum Stability Assay
A total of 400 µL of human serum was taken, and 200 µg peptide dissolved in 100 µL of water was added to human serum at 37 °C. A total of 80 µL of samples was removed at various time points (0 min, 30 min, 60 min, 120 min, 240 min, and 480 min), and 160 µL of acetonitrile was added to precipitate plasma proteins. The solution was then centrifuged at 12,000 rpm for 15 min at 4 °C. A total of 200 µL of supernatant was taken out and mixed with 240 µL of milli-Q water, and each sample was analyzed by RP-HPLC (2 × 80 μL injection), by measuring the area under the peak at the appropriate retention time compared to the peak area of the peptide at time zero minute (100%). Data analysis (n = 3, duplicate) was performed using Prism Version 8.0.2, a non-linear-fit one-phase decay model.

[6] = biological target: T1, 7BP protein (RXFP1 extracellular domain attached with a single TM domain) (Homo sapiens, UniProt Q9HBX9); assay: Eu-H2 relaxin competition binding in HEK-7BP cells, BSA free; settings: HEK-293T cells stably expressing 7BP, BSA excluded from buffer, mean ± SEM, n in brackets, one-site fit, read-out: HEK-7BP Binding B.S.A. Free Eu-H2 pKi (n) (converted)
T1 construct: RXFP1 extracellular domain attached with a single TM domain instead of the native 7 TM domain; single transmembrane domain replacing the native 7 TM domain (heterologous); expressed in transfected cells; host or cells: HEK-293T cells stably expressing 7BP (HEK-7BP)
T1 sequence (Q9HBX9 1-409 limits assumed): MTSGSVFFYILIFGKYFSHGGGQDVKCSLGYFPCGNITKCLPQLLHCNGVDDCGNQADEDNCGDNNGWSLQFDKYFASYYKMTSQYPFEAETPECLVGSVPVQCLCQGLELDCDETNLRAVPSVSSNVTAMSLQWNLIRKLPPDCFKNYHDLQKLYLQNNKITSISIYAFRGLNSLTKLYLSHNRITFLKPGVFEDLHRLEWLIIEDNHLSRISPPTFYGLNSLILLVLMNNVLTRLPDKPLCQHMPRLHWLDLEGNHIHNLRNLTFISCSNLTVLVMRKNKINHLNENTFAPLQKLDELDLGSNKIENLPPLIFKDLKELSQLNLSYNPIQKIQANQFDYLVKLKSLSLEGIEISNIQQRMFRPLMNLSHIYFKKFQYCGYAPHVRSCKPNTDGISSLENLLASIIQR
Experimental: 3.6. HEK-7BP Binding Assays
HEK-293T cells stably expressing the 7BP protein (HEK-7BP; RXFP1 extracellular domain attached with a single TM domain instead of the native 7 TM domain [30]) were plated in 96-well plates. The medium was aspirated off, and the cells were washed with phosphate-buffered saline (PBS) before competition binding assays were performed with Eu-H2 Relaxin (RXFP1 ligand), as previously described, with the only difference being that BSA was excluded from the binding assay buffer. Competition binding curves for each peptide were performed in triplicate, and each experiment was performed independently at least three times. Fluorescent measurements were carried out on a BMG POLARstar plate reader (BMG Labtech, Melbourne, Australia). Pooled data are presented as mean ± SE of specific binding and are fitted using a one-site binding curve in GraphPad Prism version 8 (GraphPad Inc., San Diego, CA, USA). Statistical analyses were conducted using a one-way analysis of variance with uncorrected Fisher’s least significant difference (LSD) post-hoc analysis in GraphPad Prism version 8.

[7] = human serum 400 µL + 200 µg peptide in 100 µL water, samples 0-480 min, acetonitrile precipitation, RP-HPLC peak area vs time zero, one-phase decay fit, n = 3, duplicate

VIKLSGRELVRAQIAISGMSTWSKRSL-NH2 [Analogue B7-33]
pERK pathway activation potency [1]: potency similar to H2 relaxin | cAMP activation [2]: barely activate | effect on fibrosis in animal models [3]: reversed or resolved fibrosis | α-SMA expression levels versus T-alone-stimulated cells, in words ([4]; peptide 100 ng/mL + T 2 ng/mL, after 5–14 days of culture): fully returned to those measured for T-alone-stimulated cells | suppression of TGF-α-induced increase in α-SMA expression ([4]; peptide 100 ng/mL co-administered with T (2 ng/mL), after 72 h of culture, 0.5% FCS, n = 6 in duplicate): almost fully suppressed | half-life at 400 µg/mL [5, 7]: ~6 min | in vitro half-life in serum [5, 7]: 6 min | in vitro serum stability, in words ([5]; human serum, RP-HPLC, n = 3 independent experiments): degrades within minutes

CCCCCCCCCCCCCCCC(=O)NCCCC[C@H](NC(=O)[C@H](CCC(=O)O)NC(=O)[C@H](Cc1ccc(O)cc1)NC(=O)[C@@H](N)CCC(=O)O)C(=O)N[C@@H](CCC(=O)O)C(=O)N[C@@H](Cc1ccc(O)cc1)C(=O)N[C@@H](CCC(=O)O)C(=O)NCCOCCOCCOCCOCCOCCOCCC(=O)N[C@H](C(=O)N[C@H](C(=O)N[C@@H](CCCCN)C(=O)N[C@@H](CC(C)C)C(=O)N[C@@H](CO)C(=O)NCC(=O)N[C@@H](CCCNC(=N)N)C(=O)N[C@@H](CCC(=O)O)C(=O)N[C@@H](CC(C)C)C(=O)N[C@H](C(=O)N[C@@H](CCCNC(=N)N)C(=O)N[C@@H](C)C(=O)N[C@@H](CCC(N)=O)C(=O)N[C@H](C(=O)N[C@@H](C)C(=O)N[C@H](C(=O)N[C@@H](CO)C(=O)NCC(=O)N[C@@H](CCSC)C(=O)N[C@@H](CO)C(=O)N[C@H](C(=O)N[C@@H](Cc1c[nH]c2ccccc12)C(=O)N[C@@H](CO)C(=O)N[C@@H](CCCCN)C(=O)N[C@@H](CCCNC(=N)N)C(=O)N[C@@H](CO)C(=O)N[C@@H](CC(C)C)C(N)=O)[C@@H](C)O)[C@@H](C)CC)[C@@H](C)CC)C(C)C)[C@@H](C)CC)C(C)C [Tag-PEG6-B7-33]
Ki [6]: > 10 µM
